# Reference: patent publication US9789115B2 (priority 2010, dated 2017)
# Columns and labels:
# naïve rats = details: rat, in vivo
# [1] = tested on: opioid-treated operated rats; assay: Experimental protocol 2: OIH precipitated by naloxone, withdrawal responses with von Frey filaments; type: in vivo, rat; details: for naloxone-precipitated hyperalgesia: naloxone on day 21
# [2] = tested on: operated rats (plantar incision); details: rat, in vivo
# sigma 2 (σ-2) site = sigma 2 (σ-2) site (Homo sapiens, UniProt Q5BJF2); details: cited from earlier work
# sigma 2 (σ-2) site, sequence (Q5BJF2 whole entry): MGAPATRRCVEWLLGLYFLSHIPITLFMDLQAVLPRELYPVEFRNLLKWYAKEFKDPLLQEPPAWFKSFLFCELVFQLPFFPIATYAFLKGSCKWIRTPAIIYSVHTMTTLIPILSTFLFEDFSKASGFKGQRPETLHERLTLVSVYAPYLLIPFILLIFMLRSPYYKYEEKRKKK
molecule,measurement,setting,value
CN1CCN(CCc2ccc(Cl)c(Cl)c2)CC1 [BD-1063],enhancement of allodynia induced by morphine administration,naïve rats,reduces the enhancement of allodynia
same,morphine-induced hyperalgesia,naïve rats,inhibited
"Cc1cc(OCCN2CCOCC2)nn1-c1ccc2ccccc2c1 [compound n° 63, 4-{2-[5-Methyl-1-(naphthalen-2-yl)-1H-pyrazol-3-yloxy]ethyl}morpholine]",naloxone-precipitated hyperalgesia,[1]; 80 mg/kg co-administered with last dose of opioid,unable to precipitate hyperalgesia
same,naloxone-precipitated hyperalgesia,[1]; 20 and 40 mg/kg co-administered with last dose of opioid,attenuation
same,allodynia secondary to surgery and OIH when Morphine was used,[2],inhibits allodynia secondary to surgery and OIH
same,decrease of the mechanical sensitization threshold induced by the surgery,[2],inhibit dose-dependently
same,development of OIH,[2],inhibits dose-dependently
same,enhancement of allodynia induced by perioperative morphine,[2],strongly reduced
CN1CC[C@]23c4c5ccc(O)c4O[C@H]2[C@@H](O)C=C[C@H]3[C@H]1C5 [morphine],analgesic effect of the opioid,[2]; ip,analgesic effect
C=CCN1CC[C@]23c4c5ccc(O)c4O[C@H]2C(=O)CC[C@@]3(O)[C@H]1C5 [naloxone],nociceptive threshold after naloxone injection,[1]; naloxone 2 mg/kg on day 21 in opioid-treated rats,significant decrease in the nociceptive threshold below the basal value
same,nociceptive threshold after naloxone injection,[1]; naloxone 2 mg/kg on day 21 in vehicle saline-treated rats,no significant effect
SKF 10047,affinity for the sigma 2 site,sigma 2 (σ-2) site,micromolar affinity
